Reference: patent publication US20120172359A1 (NOVARTIS AG, priority 2010, published 2012)
Structures can show the parent of a compound that is named as a salt.

molecular target: Human BACE-1 (Homo sapiens, UniProt P56817); assay: Test 1: Inhibition of Human BACE-1; type: biochemical; details: Test 1; recombinant BACE-1 (extracellular domain), acetate buffer pH 4.5, 1 hour with test compound at room temperature, fluorescence-quenched peptide substrate; read-out: Bace IC50
Sequence (P56817 46-457 limits assumed): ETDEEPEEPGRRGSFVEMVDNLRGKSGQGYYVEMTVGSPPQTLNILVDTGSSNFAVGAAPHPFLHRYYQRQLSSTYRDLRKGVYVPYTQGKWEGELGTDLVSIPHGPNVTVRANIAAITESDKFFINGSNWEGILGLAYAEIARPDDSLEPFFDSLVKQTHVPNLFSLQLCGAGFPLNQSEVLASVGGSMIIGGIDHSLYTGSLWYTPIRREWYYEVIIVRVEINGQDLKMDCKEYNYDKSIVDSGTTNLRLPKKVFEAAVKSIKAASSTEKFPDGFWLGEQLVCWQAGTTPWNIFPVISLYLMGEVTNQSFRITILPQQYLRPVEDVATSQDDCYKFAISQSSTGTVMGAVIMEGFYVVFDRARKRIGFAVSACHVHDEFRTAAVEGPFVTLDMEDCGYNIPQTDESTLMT

Row | SMILES | IC50 [nM]
1 | Cc1cc(Br)cnc1C(=O)Nc1ccc(F)c([C@]2(CF)COCC(N)=N2)c1 [Example 91, 5-Bromo-3-methyl-pyridine-2-carboxylic acid [3-((R)-5-amino-3-fluoromethyl-3,6-dihydro-2H-[1,4]oxazin-3-yl)-4-fluoro-phenyl]-amide hydrochloride] | 15
2 | Cc1nc(C(=O)Nc2cccc(C3(C)COCC(N)=N3)c2)co1 (stereo not shown) [Example 5, 2-Methyl-oxazole-4-carboxylic acid [3-(5-amino-3-methyl-3,6-dihydro-2H-[1,4]oxazin-3-yl)-phenyl]-amide] | 640
3 | NC1=N[C@@](c2cc(NC(=O)c3ccc(=O)[nH]c3)ccc2F)(C(F)F)COC1 [Example 162, 6-Oxo-1,6-dihydro-pyridine-3-carboxylic acid [3-((R)-5-amino-3-difluoromethyl-3,6-dihydro-2H-[1,4]oxazin-3-yl)-4-fluoro-phenyl]-amide] | 8500
4 | NC1=NC(c2cc(NC(=O)c3ccc(Br)cn3)c(F)cc2F)(C(F)F)COC1 (stereo not shown) [Example 81, 5-Bromo-pyridine-2-carboxylic acid [5-(5-amino-3-difluoromethyl-3,6-dihydro-2H-[1,4]oxazin-3-yl)-2,4-difluoro-phenyl]-amide hydrochloride] | 1100
5 | NC1=N[C@](CF)(c2cccc(NC(=O)c3ccc(Br)cn3)c2)COC1 [Example 33, 5-Bromo-pyridine-2-carboxylic acid [3-((R)-5-amino-3-fluoromethyl-3,6-dihydro-2H-[1,4]oxazin-3-yl)-phenyl]-amide] | 130
6 | CC1(c2cc(NC(=O)c3ncc(C(F)(F)F)cc3Cl)ccc2F)N=C(N)COCC1(F)F (stereo not shown) [Example 154, 3-Chloro-5-trifluoromethyl-pyridine-2-carboxylic acid [3-(3-amino-6,6-difluoro-5-methyl-2,5,6,7-tetrahydro-[1,4]oxazepin-5-yl)-4-fluoro-phenyl]-amide] | 120
7 | C[C@@]1(c2cc(Br)cc(NC(=O)c3ccc(Br)cn3)c2)COCC(N)=N1 [Example 52, 5-Bromo-pyridine-2-carboxylic acid [3-((R)-5-amino-3-methyl-3,6-dihydro-2H-[1,4]oxazin-3-yl)-5-bromo-phenyl]-amide] | 180
8 | Cl.[2H]c1nc(C(=O)Nc2ccc(F)c([C@]3(CF)COCC(N)=N3)c2)c(C([2H])([2H])[2H])c([2H])c1Cl [Example 93, 5-Chloro-4,6-dideutero-3-trideuteromethyl-pyridine-2-carboxylic acid [3-((R)-5-amino-3-fluoromethyl-3,6-dihydro-2H-[1,4]oxazin-3-yl)-4-fluoro-phenyl]-amide hydrochloride] | 8
9 | CCOc1ccc(C(=O)Nc2ccc(F)c([C@]3(C(F)F)COCC(N)=N3)c2)nc1 [Example 120, 5-Ethoxy-pyridine-2-carboxylic acid [3-((R)-5-amino-3-difluoromethyl-3,6-dihydro-2H-[1,4]oxazin-3-yl)-4-fluoro-phenyl]-amide] | 180
10 | NC1=N[C@@](c2cc(NC(=O)c3ncc(Br)cn3)ccc2F)(C(F)F)COC1 [Example 121, 5-Bromo-pyrimidine-2-carboxylic acid [3-((R)-5-amino-3-difluoromethyl-3,6-dihydro-2H-[1,4]oxazin-3-yl)-4-fluoro-phenyl]-amide hydrochloride] | 36
11 | NC1=N[C@@](c2cc(NC(=O)c3ccc(OC(F)F)cn3)ccc2F)(C(F)F)COC1 [Example 138, 5-Difluoromethoxy-pyridine-2-carboxylic acid [3-((R)-5-amino-3-difluoromethyl-3,6-dihydro-2H-[1,4]oxazin-3-yl)-4-fluoro-phenyl]-amide hydrochloride] | 42
12 | COc1cnc(C(=O)Nc2cccc(C3(C)COCC(N)=N3)c2)cn1 (stereo not shown) [Example 18, 5-Methoxy-pyrazine-2-carboxylic acid [3-(5-amino-3-methyl-3,6-dihydro-2H-[1,4]oxazin-3-yl)-phenyl]-amide] | 560
13 | COc1cc(Br)cnc1C(=O)Nc1ccc(F)c([C@]2(CF)COCC(N)=N2)c1 [Example 95, 5-Bromo-3-methoxy-pyridine-2-carboxylic acid [3-((R)-5-amino-3-fluoromethyl-3,6-dihydro-2H-[1,4]oxazin-3-yl)-4-fluoro-phenyl]-amide] | 390
14 | N#Cc1ccc(C(=O)Nc2ccc(F)c(C3(CF)COCC(N)=N3)c2)nc1 (stereo not shown) [Example 89, 5-Cyano-pyridine-2-carboxylic acid [3-(5-amino-3-fluoromethyl-3,6-dihydro-2H-[1,4]oxazin-3-yl)-4-fluoro-phenyl]-amide hydrochloride] | 94
15 | NC1=NC(CF)(c2cccc(NC(=O)c3ccc(Br)cn3)c2)COC1 (stereo not shown) [Example 31, 5-Bromo-pyridine-2-carboxylic acid [3-(5-amino-3-fluoromethyl-3,6-dihydro-2H-[1,4]oxazin-3-yl)-phenyl]-amide] | 160
16 | NC1=N[C@@](c2cc(NC(=O)c3ncc(Cl)cc3N)ccc2F)(C(F)F)COC1 [Example 160, 3-Amino-5-chloro-pyridine-2-carboxylic acid [3-((R)-5-amino-3-difluoromethyl-3,6-dihydro-2H-[1,4]oxazin-3-yl)-4-fluoro-phenyl]-amide] | 12

Row | SMILES | IC50 [nM]
17 | C[C@H]1OC[C@](c2cc(NC(=O)c3ccc(Br)cn3)ccc2F)(C(F)F)N=C1N (relative stereo) [Example 77, 5-Bromo-pyridine-2-carboxylic acid [3-((3R*,6R*)-5-amino-3-difluoromethyl-6-methyl-3,6-dihydro-2H-[1,4]oxazin-3-yl)-4-fluoro-phenyl]-amide hydrochloride] | 92
18 | Cc1cnc(C(=O)Nc2ccc(F)c(C3(C)COCC(N)=N3)c2)cn1 (stereo not shown) [Example 61, 5-Methyl-pyrazine-2-carboxylic acid [3-(5-amino-3-methyl-3,6-dihydro-2H-[1,4]oxazin-3-yl)-4-fluoro-phenyl]-amide hydrochloride] | 1970
19 | Cn1ccnc1C(=O)Nc1ccc(F)c([C@]2(C(F)F)COCC(N)=N2)c1 [Example 133, 1-Methyl-1H-imidazole-2 carboxylic acid [3-((R)-5-amino-3 difluoromethyl-3,6-dihydro-2H [1,4]oxazin-3-yl)-4-fluoro-phenyl]-amide hydrochloride] | 1000
20 | NC1=NC(c2cccc(NC(=O)c3cnc(C(F)F)cn3)c2)(C(F)F)COC1 (stereo not shown) [Example 110, 5-Difluoromethyl-pyrazine-2-carboxylic acid [3-(5-amino-3-difluoromethyl-3,6-dihydro-2H-[1,4]oxazin-3-yl)-phenyl]-amide hydrochloride] | 1900
21 | NC1=N[C@@](c2cc(NC(=O)c3ccc(Cl)cn3)ccc2F)(C(F)F)COC1 [Example 137, 5-Chloro-pyridine-2-carboxylic acid [3-((R)-5-amino-3-difluoromethyl-3,6-dihydro-2H-[1,4]oxazin-3-yl)-4-fluoro-phenyl]-amide hydrochloride] | 30
22 | Cn1ccc(C(=O)Nc2ccc(F)c([C@]3(C(F)F)COCC(N)=N3)c2)n1 [Example 150, 1-Methyl-1H-pyrazole-3-carboxylic acid [3-((R)-5-amino-3-difluoromethyl-3,6-dihydro-2H-[1,4]oxazin-3-yl)-4-fluoro-phenyl]-amide hydrochloride] | 290
23 | NC1=N[C@@](c2cc(NC(=O)c3cnc(OCCF)cn3)ccc2F)(C(F)F)COC1 [Example 136, 5-(2-Fluoro-ethoxy)-pyrazine-2-carboxylic acid [3-((R)-5-amino-3-difluoromethyl-3,6-dihydro-2H-[1,4]oxazin-3-yl)-4-fluoro-phenyl]-amide hydrochloride] | 130
24 | CC1(c2cccc(NC(=O)c3ncc(C(F)(F)F)cc3Cl)c2)COCC(N)=N1 (stereo not shown) [Example 17, 3-Chloro-5-trifluoromethyl-pyridine-2-carboxylic acid [3-(5-amino-3-methyl-3,6-dihydro-2H-[1,4]oxazin-3-yl)-phenyl]-amide] | 400
25 | Cc1cc(Cl)cnc1C(=O)Nc1cccc(C2(C(F)F)COCC(N)=N2)c1 (stereo not shown) [Example 41, 5-Chloro-3-methyl-pyridine-2-carboxylic acid [3-(5-amino-3-difluoromethyl-3,6-dihydro-2H-[1,4]oxazin-3-yl)-phenyl]-amide] | 350
26 | Cc1nc(C(=O)Nc2ccc(F)c([C@]3(C(F)F)COCC(N)=N3)c2)cs1 [Example 148, 2-Methyl-thiazole-4-carboxylic acid [3-((R)-5-amino-3-difluoromethyl-3,6-dihydro-2H-[1,4]oxazin-3-yl)-4-fluoro-phenyl]-amide hydrochloride] | 940
27 | Cc1cc(Br)cnc1C(=O)Nc1cccc([C@]2(C)COCC(=N)N2)c1 [Example 29, 5-Bromo-3-methyl-pyridine-2-carboxylic acid [3-((R)-5-amino-3-methyl-3,6-dihydro-2H-[1,4]oxazin-3-yl)-phenyl]-amide] | 56
28 | Cn1cc([N+](=O)[O-])c(C(=O)Nc2ccc(F)c([C@]3(C(F)F)COCC(N)=N3)c2)n1 [Example 151, 1-Methyl-4-nitro-1H-pyrazole-3-carboxylic acid [3-((R)-5-amino-3-difluoromethyl-3,6-dihydro-2H-[1,4]oxazin-3-yl)-4-fluoro-phenyl]-amide hydrochloride] | 1200
29 | C[C@@]1(c2cc(Br)cc(NC(=O)c3ccc(C#N)cn3)c2)COCC(N)=N1 [Example 53, 5-Cyano-pyridine-2-carboxylic acid [3-((R)-5-amino-3-methyl-3,6-dihydro-2H-[1,4]oxazin-3-yl)-5-bromo-phenyl]-amide] | 380
30 | COc1cnc(C(=O)Nc2ccc(F)c([C@]3(C(F)F)COCC(N)=N3)c2)c(OC)c1 [Example 179, 3,5-Dimethoxy-pyridine-2-carboxylic acid [3-((R)-5-amino-3-difluoromethyl-3,6-dihydro-2H-[1,4]oxazin-3-yl)-4-fluoro-phenyl]-amide] | 920
31 | CC1(c2cccc(NC(=O)c3cccnc3)c2)COCC(N)=N1 (stereo not shown) [Example 28, N-[3-(5-Amino-3-methyl-3,6-dihydro-2H-[1,4]oxazin-3-yl)-phenyl]-nicotinamide] | 60000
